Data as given in PubChem BioAssay (NCI).
Values joined by “and” are separate entries in the source; they are usually repeats but may differ in a detail not shown here. Equal values may be shown once.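 How tested: cells in 96-well plates exposed to compound for 48 hours at five concentrations. GI50 is the concentration that inhibits growth by half. The concentration for full growth arrest is given as TGI.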

Experiments:
Assay in all cases: inhibition of tumour cell growth, NCI panel, 48 h
HOP-18 NSCLC = system: HOP-18 NSCLC
OVCAR-4 ovarian = system: OVCAR-4 ovarian
KM20L2 colon = system: KM20L2 colon
DMS 273 small cell lung = system: DMS 273 small cell lung
DLD-1 colon = system: DLD-1 colon
XF 498 CNS = system: XF 498 CNS
DMS 114 small cell lung = system: DMS 114 small cell lung
MDA-MB-231 breast = system: MDA-MB-231 breast
HS 578T breast = system: HS 578T breast
T-47D breast = system: T-47D breast

| Compound | GI50 (HOP-18 NSCLC) | TGI (HOP-18 NSCLC) | GI50 (OVCAR-4 ovarian) | TGI (OVCAR-4 ovarian) | GI50 (KM20L2 colon) [µM] | TGI (KM20L2 colon) [µM] | GI50 (DMS 273 small cell lung) | TGI (DMS 273 small cell lung) | GI50 (DLD-1 colon) [µM] | TGI (DLD-1 colon) | GI50 (XF 498 CNS) | TGI (XF 498 CNS) | GI50 (DMS 114 small cell lung) [µM] | TGI (DMS 114 small cell lung) | TGI (MDA-MB-231 breast) | TGI (HS 578T breast) | TGI (T-47D breast) |
| --- | --- | --- | --- | --- | --- | --- | --- | --- | --- | --- | --- | --- | --- | --- | --- | --- | --- |
| CC(=O)[CH-]C(C)=O.[CH2-]C.[CH2-]C.[Tl+3] | > 100 µM | > 100 µM | > 100 µM | > 100 µM | > 100 | > 100 | > 100 µM | > 100 µM | > 100 | > 100 µM | > 100 µM | > 100 µM | > 100 | > 100 µM |  |  |  |
| CC(=O)OC1COC(n2c(=S)n(-c3ccccc3)c(=O)c3cc(Br)ccc32)C(OC(C)=O)C1OC(C)=O (stereo not drawn) |  | > 100 µM |  | 31.6 µM |  | > 100 |  | > 100 µM |  |  |  | 45.2 µM |  | > 100 µM |  |  |  |
| COC1OC(C)C(OCc2ccccc2)C(OS(=O)(=O)c2ccc(C)cc2)C1OS(=O)(=O)c1ccc(C)cc1 (stereo not drawn) |  | > 100 µM |  | > 100 µM |  | > 100 |  | > 100 µM |  | > 100 µM |  |  |  | > 100 µM |  |  |  |
| CC(=O)NNc1nc(C)c(C(=O)NNC(=O)C(=O)Nc2nc3ccc([N+](=O)[O-])cc3s2)s1 |  |  |  | > 100 µM |  | > 100 |  | > 100 µM |  | > 100 µM |  | 75.9 µM |  | 82.5 µM | > 100 µM | > 100 µM | 68.3 µM |
| C#CCC(N)(CO)C(=O)O (stereo not drawn) |  | > 100 µM |  | > 100 µM |  |  |  | > 100 µM |  | > 100 µM |  | > 100 µM |  | > 100 µM |  |  |  |
| CC(=O)[O-].CC(=O)[O-].CC(=O)[O-].CC(=O)[O-].[Mo+2].[Mo+2] | > 100 µM | > 100 µM | > 100 µM | > 100 µM | > 100 | > 100 | > 100 µM | > 100 µM | > 100 | > 100 µM |  |  |  |  |  |  |  |
| CC1=C(C(=O)Nc2ccccc2C)C(/C=C/c2ccccc2)C(C(=O)Nc2ccccc2C)=C(C)N1 |  | > 100 µM |  | > 100 µM |  | > 100 |  | > 100 µM |  | > 100 µM |  | > 100 µM |  |  |  |  |  |
| CNC(SC)=C1C(=O)OC(C)(C)OC1=O |  | > 100 µM |  |  |  | > 100 |  | > 100 µM |  | 54.2 µM |  | > 100 µM |  | > 100 µM |  |  |  |
| COc1cc2cnc3c4ccccc4ccc3c2cc1OC |  |  |  | > 100 µM |  | > 100 |  |  |  | > 100 µM |  | > 100 µM |  | > 100 µM |  |  |  |
| CCCCCCCCCCCCCC(=O)OCC1OC(=O)CC1O (stereo not drawn) |  | 67.3 µM |  | > 100 µM |  | > 100 |  | > 100 µM |  | > 100 µM |  | > 100 µM |  | > 100 µM |  |  |  |
| CSc1c(C)c(C)nn1-c1ccccc1 |  |  |  | > 100 µM |  | > 100 |  | > 100 µM |  | > 100 µM |  | > 100 µM |  | > 100 µM |  |  |  |
| COc1ccc(Nc2nc3ccccc3nc2-c2cccs2)cc1 |  | > 100 µM |  | > 100 µM |  | > 100 |  | > 100 µM |  | > 100 µM |  | > 100 µM |  | > 100 µM |  |  |  |
| CCOC(=O)C(=O)Nc1ccccc1C(F)(F)F |  | > 100 µM |  | > 100 µM |  | > 100 |  | > 100 µM |  | > 100 µM |  | > 100 µM |  |  |  |  |  |
| O=C1C=C(O)c2[nH]c(=O)ccc2C1=O |  |  |  | 82.5 µM |  | > 100 |  | > 100 µM |  | > 100 µM |  | > 100 µM |  |  |  |  |  |
| Cc1ccc(S(=O)(=O)N/N=C(\c2nc3ccc([N+](=O)[O-])cc3[nH]c2=O)C(O)c2ccccc2Cl)cc1 (stereo not drawn) |  | > 100 µM |  | > 100 µM |  | > 100 |  | > 100 µM |  | > 100 µM |  |  |  | > 100 µM |  |  |  |
| Cc1cc(N(CCC#N)CCC#N)ccc1/C=C1N=C(/C=C/c2ccccc2)OC(=O)N\1 |  |  |  |  |  | > 100 |  | > 100 µM |  | > 100 µM |  | > 100 µM |  | > 100 µM |  |  |  |
| C[n+]1c2ccccc2cc2c(CNC(CCCN=C(N)N)C(=O)O)cccc21 (stereo not drawn) |  | 15.5 µM |  | 23.9 µM | 0.346 | 12.3 | 0.441 µM | 8.77 µM and 1.53 µM | 0.481 | 1.32 µM and 1.74 µM | 2.46 µM | 3.5 µM and 4.02 µM | 1.62 | 1.16 µM and 3.36 µM |  |  |  |
| NC(N)=NS(=O)(=O)c1ccc(NC(=O)c2cccc3c(Nc4ccc(S(N)(=O)=O)cc4)c4ccccc4nc23)cc1 |  | > 100 µM |  | > 100 µM |  | > 100 |  | > 100 µM |  | > 100 µM |  | > 100 µM |  | > 100 µM |  |  |  |
| O=c1c(Cl)c(Cl)cnn1CCc1ccncc1 |  | 34.2 µM |  | 33 µM |  | 36.2 |  | 33.6 µM |  | 30.4 µM |  | 29.6 µM |  | 29 µM |  |  |  |
| CC1(C)CC[C@H](C2=CC(=O)c3c(O)ccc(O)c3C2=O)O1 | 1.83 µM and 1.72 µM and 0.265 µM | 3.39 µM and 3.15 µM and 0.703 µM | 1.86 µM and 0.311 µM and 0.192 µM | 4.3 µM and 1.63 µM and 0.505 µM |  |  | 7.31 µM and 1.32 µM and 0.752 µM |  |  |  | 2.3 µM and 2.36 µM and 0.563 µM | 4.6 µM and 3.89 µM and 1.34 µM | 1.63 | 2.21 µM and 3.14 µM and 0.47 µM | 2.79 µM and 8.31 µM | 6.78 µM and 7.42 µM | 1.35 µM and 2.63 µM |
